The record followed here is patent US9878986B2, “Compounds for selective histone deacetylase inhibitors, and pharmaceutical composition comprising the same” (CHONG KUN DANG PHARMACEUTICAL CORP., priority 2013, dated 2018).

One experiment has as its target T1, HDAC 6 (Homo sapiens, UniProt Q9UBN7).
T1 sequence (Q9UBN7 1-1215): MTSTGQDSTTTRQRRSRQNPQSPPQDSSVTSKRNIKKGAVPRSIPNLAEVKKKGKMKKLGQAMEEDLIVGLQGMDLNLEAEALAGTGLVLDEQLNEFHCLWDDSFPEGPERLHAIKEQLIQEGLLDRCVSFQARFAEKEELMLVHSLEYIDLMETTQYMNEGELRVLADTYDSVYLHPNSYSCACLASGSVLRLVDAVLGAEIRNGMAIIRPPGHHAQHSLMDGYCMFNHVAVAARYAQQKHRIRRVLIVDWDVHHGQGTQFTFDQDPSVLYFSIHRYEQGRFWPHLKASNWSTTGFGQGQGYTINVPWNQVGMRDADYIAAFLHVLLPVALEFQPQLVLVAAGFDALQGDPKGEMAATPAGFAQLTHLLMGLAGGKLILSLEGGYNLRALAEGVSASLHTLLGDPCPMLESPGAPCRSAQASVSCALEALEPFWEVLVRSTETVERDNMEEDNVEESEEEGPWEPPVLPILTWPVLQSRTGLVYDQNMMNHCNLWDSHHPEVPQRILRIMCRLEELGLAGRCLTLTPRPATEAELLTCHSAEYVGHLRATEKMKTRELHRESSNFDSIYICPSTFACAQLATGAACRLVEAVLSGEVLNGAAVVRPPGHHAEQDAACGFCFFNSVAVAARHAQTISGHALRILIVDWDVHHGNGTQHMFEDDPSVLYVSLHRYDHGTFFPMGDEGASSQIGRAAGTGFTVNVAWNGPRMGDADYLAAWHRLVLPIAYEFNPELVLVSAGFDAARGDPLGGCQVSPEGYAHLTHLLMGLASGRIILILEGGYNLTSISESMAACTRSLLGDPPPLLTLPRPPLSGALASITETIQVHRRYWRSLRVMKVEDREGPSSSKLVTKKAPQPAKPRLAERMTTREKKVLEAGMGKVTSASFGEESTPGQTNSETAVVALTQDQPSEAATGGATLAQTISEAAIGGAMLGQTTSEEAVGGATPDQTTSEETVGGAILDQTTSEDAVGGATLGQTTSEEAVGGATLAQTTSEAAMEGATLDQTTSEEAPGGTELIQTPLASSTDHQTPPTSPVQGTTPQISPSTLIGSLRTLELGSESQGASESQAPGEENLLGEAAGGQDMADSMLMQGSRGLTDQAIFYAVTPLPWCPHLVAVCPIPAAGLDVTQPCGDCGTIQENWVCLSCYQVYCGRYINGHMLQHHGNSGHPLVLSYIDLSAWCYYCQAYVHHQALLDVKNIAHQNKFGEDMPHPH
As to the kind of experiment: Test of HDAC activities, HDAC6 (fluorimetric). Type of experiment: biochemical. Also on record: purchased Calbiochem 382180. The settings on record: samples at 0.1, 1, 10, 100, 1000 nM; 37° C. 60 minutes; fluorescence Ex 390, Em 460; read-out: HDAC inhibitory activities, HDAC6. The method, boiled down: (§1)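 HDAC1 tested at 100, 1000 and 10000 nM; recombinant human HDAC6 at 0.1, 1, 10, 100 and 1000 nM. Reaction 60 min at 37° C, then developer for 30 min at 37° C; fluorescence read at Ex 390/Em 460.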

The target in a further experiment is HDAC1 (Homo sapiens, UniProt Q13547). As to the kind of experiment: Test of HDAC activities, HDAC1 Fluorimetric Drug Discovery Assay Kit. Type of experiment: biochemical. Also on record: purchased Enzolifesciences BML-AK511. The settings on record: samples at 100, 1000, 10000 nM; 37° C. 60 minutes; fluorescence Ex 390, Em 460; read-out: HDAC inhibitory activities, HDAC1. The method, boiled down:
as §1

Sequence of HDAC1 (Q13547 whole entry): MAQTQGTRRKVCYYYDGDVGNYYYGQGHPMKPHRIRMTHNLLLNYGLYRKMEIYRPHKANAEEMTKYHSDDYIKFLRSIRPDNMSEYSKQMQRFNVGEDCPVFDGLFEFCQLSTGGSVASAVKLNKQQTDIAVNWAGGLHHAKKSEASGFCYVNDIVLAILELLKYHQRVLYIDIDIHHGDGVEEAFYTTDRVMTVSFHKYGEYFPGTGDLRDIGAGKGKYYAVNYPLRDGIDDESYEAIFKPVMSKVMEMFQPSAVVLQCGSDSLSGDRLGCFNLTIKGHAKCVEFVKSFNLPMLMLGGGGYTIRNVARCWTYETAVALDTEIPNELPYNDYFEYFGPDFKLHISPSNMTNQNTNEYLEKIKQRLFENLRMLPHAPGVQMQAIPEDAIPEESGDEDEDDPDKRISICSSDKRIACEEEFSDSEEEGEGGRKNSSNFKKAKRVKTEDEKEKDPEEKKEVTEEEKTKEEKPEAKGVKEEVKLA

Consider `O=C(NO)c1ccc(CN(C(=O)N2CC[C@@H](F)C2)c2cccc(C(F)(F)F)c2)cc1` [Compound 495, (R)-3-fluoro-N-(4-(hydroxycarbamoyl)benzyl)-N-(3-(trifluoromethyl)phenyl)pyrrolidine-1-carboxamide], for which the IC50 at HDAC 6 came to 11 nM; at HDAC1 it was 3330 nM.
As for `O=C(NO)c1ccc(CN(C(=O)N2CC[C@H](F)C2)c2cccc(C(F)(F)F)c2)cc1` [Compound 496, (S)-3-fluoro-N-(4-(hydroxycarbamoyl)benzyl)-N-(3-(trifluoromethyl)phenyl)pyrrolidine-1-carboxamide], the IC50 on HDAC 6 was 1 nM; at HDAC1 it was 1120 nM.
Take `O=C(NO)c1ccc(CN(C(=O)N2CCC[C@@H]2CO)c2cccc(C(F)(F)F)c2)cc1` [Compound 497, (R)—N-(4-(hydroxycarbamoyl)benzyl)-2-(hydroxymethyl)-N-(3-(trifluoromethyl)phenyl)pyrrolidine-1-carboxamide]: the IC50 came to 2 nM on HDAC 6 and 936 nM on HDAC1.
`O=C(NO)c1ccc(CN(C(=O)N2CCC[C@H]2C(F)(F)F)c2cccc(C(F)(F)F)c2)cc1` [Compound 498, (S)—N-(4-(hydroxycarbamoyl)benzyl)-2-(trifluoromethyl)-N-(3-(trifluoromethyl)phenyl)pyrrolidine-1-carboxamide]: the IC50 on HDAC 6 stood at 27 nM; at HDAC1, 4710 nM.
In the same order, the values of `O=C(NO)c1ccc(CN(C(=O)N2CCOCC2)c2cccc(CO)c2)cc1` [Compound 499, N-(4-(hydroxycarbamoyl)benzyl)-N-(3-(hydroxymethyl)phenyl)morpholine-4-carboxamide] are 5 nM and 3630 nM.
In the same order, the values of `O=C(NO)c1ccc(CN(C(=O)N2CCOCC2)c2cccc(CF)c2)cc1` [Compound 500, N-(3-(fluoromethyl)phenyl)-N-(4-(hydroxycarbamoyl)benzyl)morpholine-4-carboxamide] are 3 nM and 1000 nM.
Take `O=C(NO)c1ccc(CN(C(=O)N2CCOCC2)c2cccc(-c3ccc4c(c3)OCO4)c2)c(F)c1` [Compound 511, N-(3-(benzo[d][1,3]dioxol-5-yl)phenyl)-N-(2-fluoro-4-(hydroxycarbamoyl)benzyl)morpholine-4-carboxamide]: the results for the IC50 on HDAC 6 and at HDAC1 were 12 nM and 636 nM, respectively.
For `O=C(NO)c1ccc(CN(C(=O)N2CCOCC2)c2cccc(C3=CCOCC3)c2)c(F)c1` [Compound 512, N-(3-(3,6-dihydro-2H-pyran-4-yl)phenyl)-N-(2-fluoro-4-(hydroxycarbamoyl)benzyl)morpholine-4-carboxamide] the same measures were 14 nM and 1450 nM.
In the same order, the values of `O=C(NO)c1ccc(CN(C(=O)N2CCC(O)CC2)c2cccc(-c3ccc4c(c3)OCO4)c2)c(F)c1` [Compound 513, N-(3-(benzo[d][1,3]dioxol-5-yl)phenyl)-N-(2-fluoro-4-(hydroxycarbamoyl)benzyl)-4-hydroxypiperidine-1-carboxamide] are 15 nM and 654 nM.
In the same order, the values of `O=C(NO)c1ccc(CN(C(=O)N2CCC(O)CC2)c2cccc(C3=CCOCC3)c2)c(F)c1` [Compound 514, N-(3-(3,6-dihydro-2H-pyran-4-yl)phenyl)-N-(2-fluoro-4-(hydroxycarbamoyl)benzyl)-4-hydroxypiperidine-1-carboxamide] are 15 nM and 1240 nM.
As to `CC(C)(O)CN1CCC(c2cccc(N(Cc3ccc(C(=O)NO)cc3)C(=O)N3CCOCC3)c2)CC1` [Compound 517, N-(3-(1-(2-hydroxy-2-methylpropyl)piperidine-4-yl)phenyl)-N-(4-(hydroxycarbamoyl)benzyl)morpholine-4-carboxamide], the IC50 at HDAC 6 amounted to 28 nM; on HDAC1, 427 nM.
Turning to `CC(C)(F)CN1CCC(c2cccc(N(Cc3ccc(C(=O)NO)cc3)C(=O)N3CCOCC3)c2)CC1` [Compound 518, N-(3-(1-(2-fluoro-2-methylpropyl)piperidine-4-yl)phenyl)-N-(4-(hydroxycarbamoyl)benzyl)morpholine-4-carboxamide], the IC50 on HDAC 6 amounted to 14 nM; on HDAC1, 495 nM.
In the case of `O=C(NO)c1ccc(CN(C(=O)N2CC[C@@H](F)C2)c2ccc(C(F)(F)F)cc2)cc1` [Compound 520, (R)-3-fluoro-N-(4-(hydroxycarbamoyl)benzyl)-N-(4-(trifluoromethyl)phenyl)pyrrolidine-1-carboxamide], the IC50 at HDAC 6 amounted to 36 nM; on HDAC1, 1170 nM.
For `O=C(NO)c1ccc(CN(C(=O)N2CC[C@H](F)C2)c2ccc(C(F)(F)F)cc2)cc1` [Compound 521, (S)-3-fluoro-N-(4-(hydroxycarbamoyl)benzyl)-N-(4-(trifluoromethyl)phenyl)pyrrolidine-1-carboxamide] the same measures were 10 nM and 261 nM.
In the same order, the values of `O=C(NO)c1ccc(CN(C(=O)N2CCC[C@@H]2CO)c2ccc(C(F)(F)F)cc2)cc1` [Compound 522, (R)—N-(4-(hydroxycarbamoyl)benzyl)-2-(hydroxymethyl)-N-(4-(trifluoromethyl)phenyl)pyrrolidine-1-carboxamide] are 11 nM and 177 nM.
On to `CC(=O)N1CCN(C(=O)N(Cc2ccc(C(=O)NO)cc2)c2cccc(F)c2)CC1` [Compound 529, 4-acetyl-N-(3-fluorophenyl)-N-(4-(hydroxycarbamoyl)benzyl)piperazine-1-carboxamide], for which the IC50 came out at 2 nM on HDAC 6 and 574 nM at HDAC1.
In the same order, the values of `O=C(NO)c1ccc(CN(C(=O)N2CCOCC2)c2cccc(F)c2)cc1` [Compound 530, N-(3-fluorophenyl)-N-(4-(hydroxycarbamoyl)benzyl)morpholine-4-carboxamide] are 1.4 nM and 161 nM.
For `CC(C)(F)CN1CCN(C(=O)N(Cc2ccc(C(=O)NO)cc2)c2cccc(C(F)(F)F)c2)CC1` [Compound 531, 4-(2-fluoro-2-methylpropyl)-N-(4-(hydroxycarbamoyl)benzyl)-N-(3-(trifluoromethyl)phenyl)piperazine-1-carboxamide] the same measures were 5.1 nM and 1820 nM.
In the same order, the values of `O=C(NO)c1ccc(CN(C(=O)N2CCOCC2)c2cccc(C(F)(F)F)c2)c(F)c1` [Compound 532, N-(2-fluoro-4-(hydroxycarbamoyl)benzyl)-N-(3-(trifluoromethyl)phenyl)morpholine-4-carboxamide] are 1.9 nM and 577 nM.
For `O=C(NO)c1ccc(CN(C(=O)N2CCOCC2)c2ccc(Cl)cn2)cc1` [Compound 533, N-(5-chloropyridin-2-yl)-N-(4-(hydroxycarbamoyl)benzyl)morpholine-4-carboxamide], the IC50 at HDAC 6 worked out at 4.5 nM; on HDAC1, 1890 nM.
As for `O=C(NO)c1ccc(CN(C(=O)N2CCN(CCN3CCOCC3)CC2)c2ccc(C(F)(F)F)cc2)cc1` [Compound 543, N-(4-(hydroxycarbamoyl)benzyl)-4-(2-morpholinoethyl)-N-(4-(trifluoromethyl)phenyl)piperazine-1-carboxamide], the IC50 on HDAC 6 worked out at 9 nM; at HDAC1 it was 447 nM.
In the same order, the values of `O=C(NO)c1ccc(CN(C(=O)N2CCN(c3ccncc3)CC2)c2ccc(C(F)(F)F)cc2)cc1` [Compound 544, N-(4-(hydroxycarbamoyl)benzyl)-4-(pyridin-4-yl)-N-(4-(trifluoromethyl)phenyl)piperazine-1-carboxamide] are 21 nM and 503 nM.
Consider `O=C(NO)c1ccc(CN(C(=O)N2CCN(CC(=O)N3CCOCC3)CC2)c2ccc(C(F)(F)F)cc2)cc1` [Compound 545, N-(4-(hydroxycarbamoyl)benzyl)-4-(2-morpholino-2-oxoethyl)-N-(4-(trifluoromethyl)phenyl)piperazine-1-carboxamide], for which the IC50 on HDAC 6 stood at 17 nM; on HDAC1 it was 545 nM.
